Data as given in patent US12351836B2, “Microhomology mediated repair of microduplication gene mutations” (UNIVERSITY OF MASSACHUSETTS, priority 2018, dated 2025).

Target: PARP-1 (Homo sapiens, UniProt P09874)
Test: PARP-1 inhibition by rucaparib: MMEJ-based repair at the HPS1 locus in HPS1 B-LCL cells treated with SpyCas9 RNP
Assay type: cell-based
Text: To investigate whether nuclease-mediated collapse of a microduplication occurs via the MMEJ pathway, a DNA repair factor (PARP-1) that regulates DSB flux through this pathway was inhibited. PARP-1 influences the repair of a DSB through resection-dependent DNA repair pathways, such as MMEJ^3,16, which are in competition with the non-homologous end joining pathway (NHEJ) for DSB repair^17. Inhibition of the catalytic activity of PARP-1 by rucaparib reduces DSB flux through the MMEJ pathway, resulting in a decrease in microhomology-based deletion products in the resulting repair events^18. See, FIG. 18A. Patient-derived HPS1 B-LCL cells were treated with 10 µM or 20 μM rucaparib before and after treatment with SpyCas9 RNP to suppress MMEJ-mediated repair of DSBs. See, FIG. 12A. […] See, FIG. 12B. […] See, FIG. 12B-12D. […] See, FIG. 18.
For the PARP-1 inhibition experiments, 300,000 HPS1 patient-derived B-LCL cells were treated with 10 μM or 20 μM rucaparib camsylate (Sigma-Aldrich PZ0036) in standard growth medium for 24 h. Treated cells were electroporated with SpyCas9 RNPs following previously described protocol. Following another 24 h incubation in rucaparib-containing medium, cells were resuspended in PARP-1 inhibitor-free medium and harvested for analysis after 7 days.
The construction of the UMI-based library used a linear amplification step to incorporate UMIs within the amplicons from the target locus^15. HPS1 B-LCL cells and HEK293 Ts were harvested following nuclease treatment for genomic DNA extraction using the GenElute Mammalian Genomic DNA Miniprep Kit (Sigma GIN350).
The analysis of the UMI-tagged deep sequencing reads was adapted from a previous protocol^15. Initially, BWA (version 0.7.5) and SAMtools (version 0.1.19) were used to align each group of filtered merged-read pairs to a corresponding reference sequence, ignoring the unique molecular barcodes. Next, a custom Python and PySAM script was used to process mapped reads into counts of UMI-labelled reads for each target. The mapped reads were filtered by requiring a mapping value (MAPQ) larger than 30. […]

PARP-1, sequence (P09874 whole entry): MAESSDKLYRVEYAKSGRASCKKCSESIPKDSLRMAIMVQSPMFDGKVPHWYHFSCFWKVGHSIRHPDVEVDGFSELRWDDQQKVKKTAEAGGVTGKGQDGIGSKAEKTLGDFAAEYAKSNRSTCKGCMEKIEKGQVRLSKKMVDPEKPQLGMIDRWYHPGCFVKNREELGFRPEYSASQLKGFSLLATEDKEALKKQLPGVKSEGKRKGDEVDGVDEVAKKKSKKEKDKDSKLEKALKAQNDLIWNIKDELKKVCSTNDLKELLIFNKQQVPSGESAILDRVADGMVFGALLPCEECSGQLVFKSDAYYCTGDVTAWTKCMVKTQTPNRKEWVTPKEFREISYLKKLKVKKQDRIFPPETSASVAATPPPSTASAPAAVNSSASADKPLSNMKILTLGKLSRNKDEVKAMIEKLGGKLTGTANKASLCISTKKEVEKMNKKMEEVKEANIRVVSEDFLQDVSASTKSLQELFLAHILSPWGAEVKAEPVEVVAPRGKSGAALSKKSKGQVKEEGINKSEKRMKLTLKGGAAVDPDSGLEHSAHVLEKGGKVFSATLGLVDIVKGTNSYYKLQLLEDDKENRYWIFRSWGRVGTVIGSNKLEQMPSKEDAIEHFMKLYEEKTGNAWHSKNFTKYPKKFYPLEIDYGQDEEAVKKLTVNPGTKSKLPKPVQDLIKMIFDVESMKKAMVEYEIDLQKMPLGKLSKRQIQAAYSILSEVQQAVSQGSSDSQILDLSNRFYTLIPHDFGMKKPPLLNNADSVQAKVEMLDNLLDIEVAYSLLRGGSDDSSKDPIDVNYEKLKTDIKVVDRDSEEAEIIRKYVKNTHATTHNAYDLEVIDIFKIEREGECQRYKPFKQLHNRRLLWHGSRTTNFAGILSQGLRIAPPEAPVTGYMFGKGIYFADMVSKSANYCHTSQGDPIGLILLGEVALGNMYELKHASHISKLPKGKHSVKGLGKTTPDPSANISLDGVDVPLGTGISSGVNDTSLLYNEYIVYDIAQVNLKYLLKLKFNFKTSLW

CNCc1ccc(-c2[nH]c3cc(F)cc4c3c2CCNC4=O)cc1 [rucaparib, rucaparib camsylate]
16-bp deletion product (10 μM rucaparib 24 h before and after SpyCas9 RNP): around 15%
16-bp deletion product (20 μM rucaparib 24 h before and after SpyCas9 RNP): ~6%
editing rates at the HPS1 locus upon rucaparib treatment (10 or 20 μM rucaparib): overall reduction in editing rates
